Read-outs that look alike come from different tables or passages of the source.
What was measured:
[1] = system: non-diabetic control male rats; assay: PDMP treatment of non-diabetic control rats; type: in vivo, rat
Description: (§1) Because there is gender specific expression of renal GSLs, only male rats were used. Shukla, A. et al., am. J. Physiol. 262: F24-F29 (1992). Male rats were fed a standard pellet laboratory chow and were provided with water ad libitum. Diabetes was induced by the administration of streptozotocin (80 mg/kg i.p.) dissolved in 10 mM Na citrate, pH 5.5. Controls were injected with buffer alone. Animals were provided with immediate access to food. Blood was obtained from the tail vein and blood glucose levels were determined with a Beckman glucose analyzer 48 h following the injection and at the time of organ resection. […] Therefore only animals with blood glucose concentrations between 13.5 and 32 mM were utilized. At the end of the experimental period, the animals were weighted, anesthetized with ether, and their kidneys removed and weighed. For UDP-Glc measurements, the kidneys were frozen in liquid nitrogen immediately following removal.
(§2) The GlcCer synthase inhibitor PDMP was administered as the DL-hydrochlorideto both diabetic and control animals 14 days following the induction of diabetes with streptozotocin (see Table IV results). […] See Shukla, A. et al., J. Lipid. Res. 32:713-722 (1991). The piperonyl butoxide was prepared by dissolution in corn oil at a concentration of 150 mg/ml oil. The butoxide solution was administered intraperitoneally prior to injection of PDMP. On the first day of treatment this was given 4 h before PDMP treatment; on days 2 to 4 of treatment it was administered just prior to the PDMP injection. PDMP was prepared as an emulsion with the detergent Myrj 52 in normal saline, buffered with sodium acetate. The final concentrations of PDMP, Myrj 52 and sodium acetate in mg/ml were 6, 12, and 8 respectively. The PDMP was given intraperitoneally as a dose of 100 mg/kg body weight.
(§3) Glomerular volumes were measured on paraffin sections of kidney fixed in formalin and stained with periodic acid Schiff reagent. The measurements required the determination of the mean glomerular random cross sectional area (A(G)). Glomerular areas were measured using a Javelin Chromachip camera (Javelin Electronics, Torrance, Calif.) attached to an Olympus BH-2 microscope interfaced with a Macintosh II computer containing an Image Capture 2 frame grabber (Scion Corp., Walkerville, Md.) and image 1.38B14 software (NIH Public Software, Bethesda, Md.). Glomerular volumes were derived by the method described in Weibel "Stereological Methods. Practical Methods for Biological Morphometry," (academic Press, London) p. 44-45 (1979) as applied by Hirose, K. et al., Kidney Int. 21:689-695 (1982).
(§4) To determine whether the increase in glucolipid formation in diabetes was functionally important, the following experiment was performed. One group of animals was made diabetic with streptozotocin, and the other group received vehicle alone. After two weeks, the control and diabetic groups were divided according to the weights of the rats. Half of the non-diabetic and half of the diabetic animals received DL-threo-PDMP, which is the racemic mixture of the compound of the Formula I where n is 8. The control non-diabetic and diabetic groups were pair fed and received vehicle alone. After 4 days of treatment the animals were weighed and sacrificed. In Table V, the data are expressed as the mean ± S.D. All animals received the cytochrome P450 inhibitor piperonyl butoxide (600 mg/kg) intraperitoneally. Treated control and diabetic animals received DL-threo-PDMP.

[2] = system: Madin-Darby canine kidney (MDCK) cells; conditions: Shayman et al. 1991; cited from earlier work
[3] = 100 mg/kg, cited from earlier work
[4] = system: streptozotocin-induced diabetic male rats; assay: PDMP treatment of streptozotocin diabetic rats (renal hypertrophy); type: in vivo, rat
Description: as §1, §2, §3, §4

[5] = in vivo
[6] = Control + PDMP, n=11, DL-threo-PDMP 100 mg/kg i.p. 4 days with piperonyl butoxide, mean ± S.D.
[7] = Diabetic + PDMP, n=7, DL-threo-PDMP 100 mg/kg i.p. 4 days with piperonyl butoxide, mean ± S.D.

SMILES	Body Weight ([1]; Control + PDMP, n=11, DL-threo-PDMP 100 mg/kg i.p. 4 days with piperonyl butoxide 600 mg/kg i.p., mean ± S.D.) [g]	BUN [1, 6] [mg/dL]	Kidney Weight [1, 6] [g]	glomerular size ([1]; morphometric analysis, five kidneys per group, non-diabetic rats)	Creatinine ([1]; serum, Control + PDMP, n=11, DL-threo-PDMP 100 mg/kg i.p. 4 days with piperonyl butoxide, mean ± S.D.)	endogenous glycosphingolipid content [2]	half life of PDMP ([3]; animals exposed to the mixed function oxidase inhibitor PB) [h]	half life of PDMP ([3]; without piperonyl butoxide (PB)) [h]	kidney weights of PDMP-treated diabetic animals compared with untreated diabetic animals ([4]; 4 days of treatment, animals hyperglycemic)	Body Weight ([4]; Diabetic + PDMP, n=7, DL-threo-PDMP 100 mg/kg i.p. 4 days from 14 days after streptozotocin, with piperonyl butoxide 600 mg/kg i.p., mean ± S.D.) [g]	BUN [4, 7] [mg/dL]	Kidney Weight [4, 7] [g]	glomerular volumes compared with control groups ([4]; morphometric analysis, five kidneys per group, diabetic animals treated with PDMP)	renal histology (drug-induced toxicity) ([4]; periodic acid Schiff stained kidney sections: acute tubular necrosis, acute or chronic inflammation, glomerular pathology)	Creatinine ([4]; serum, Diabetic + PDMP, n=7, DL-threo-PDMP 100 mg/kg i.p. 4 days with piperonyl butoxide, mean ± S.D.)	effect on renal growth or function [5]
CCCCCCCCCC(=O)N[C@H](CN1CCOCC1)[C@H](O)c1ccccc1 (relative stereo) [PDMP, 1-phenyl-2-decanoylamino-3-morpholino-1-propanol]	238 ± 21	13 ± 3.2	2.25 ± 0.27	no effect	0.31 ± 0.09	decreased	4	1	significantly lower	200 ± 11	28 ± 6.4	2.32 ± 0.19	not significantly different	no evidence of acute tubular necrosis, acute or chronic inflammation, or glomerular pathology	0.23 ± 0.05	–
CCCCOCCOCCOCc1cc2c(cc1CCC)OCO2 [PB, piperonyl butoxide]	–	–	–	–	–	–	–	–	–	–	–	–	–	–	–	no effect
OC1C(O)C(O)C2OC2C1O (centres unmarked) [conduritol B epoxide, reference compound]	–	–	–	–	–	increased	–	–	–	–	–	–	–	–	–	–
